Literature values in patent publication US20090062246A1, “THERAPEUTIC TREATMENT-014” (ASTRAZENECA AB, priority 2007, published 2009).

Target: T1, ETB receptor (Homo sapiens, UniProt P24530)
T1 sequence (P24530 27-442): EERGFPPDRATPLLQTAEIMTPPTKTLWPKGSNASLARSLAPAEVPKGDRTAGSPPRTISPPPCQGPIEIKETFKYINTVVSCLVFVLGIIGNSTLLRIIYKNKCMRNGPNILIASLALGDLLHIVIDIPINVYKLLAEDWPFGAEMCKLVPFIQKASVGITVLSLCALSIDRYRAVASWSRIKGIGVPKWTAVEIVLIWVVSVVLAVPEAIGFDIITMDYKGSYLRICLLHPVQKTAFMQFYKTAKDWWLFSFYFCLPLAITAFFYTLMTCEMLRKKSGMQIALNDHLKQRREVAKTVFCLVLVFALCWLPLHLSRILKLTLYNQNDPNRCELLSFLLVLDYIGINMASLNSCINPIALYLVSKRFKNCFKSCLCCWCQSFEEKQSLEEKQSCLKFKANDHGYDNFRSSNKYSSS
Details: described in WO04/018044

affinity for the ETB receptor: no measurable affinity
SMILES: COc1nc(C)cnc1NS(=O)(=O)c1cccnc1-c1ccc(-c2nnco2)cc1 [Compound (I), N-(3-methoxy-5-methylpyrazin-2-yl)-2-(4-[1,3,4-oxadiazol-2-yl]phenyl)pyridine-3-sulphonamide]
